# Test results taken from article PMC5626011 (Bioorganic & Medicinal Chemistry Letters, 2017).
# Assays:
# EBOV (Makona) = format: cell-based, Ebola virus (EBOV)
# SUDV (Gulu) = format: cell-based, Sudan virus (SUDV)
# MARV (Ci67) = format: cell-based, Marburg virus (MARV)
# [1] = test system: recombinant Ebola virus Makona expressing ZsGreen (rEBOV/ZsG); format: cell-based
SMILES,EBOV EC50 (EBOV (Makona)),SUDV EC50 (SUDV (Gulu)),MARV EC50 (MARV (Ci67)),EC50 ([1]; read-out: EBOV EC50) [µM],fold less potent than compound 1 [1] [fold]
COc1nc(N)ncc1-c1cn(COCCO)cn1 [compound 1],no detectable activity,no detectable activity,no detectable activity,2.2 ± 0.3,
CCC(CC)COC(=O)[C@H](C)N[P@](=O)(OCCOCn1cnc(-c2cnc(N)nc2OC)c1)Oc1ccccc1 [compound 3],,,,,~10
